Data: patent US20170290814A1, “METHODS OF TREATMENT OF CHOLESTASIS AND FIBROSIS” (GENFIT, priority 2016, published 2017)

System: TGFβ1-induced expression of α-SMA protein in human HSC
Assay: α-SMA ELISA in TGFβ1-activated human hepatic stellate cells
Format: cell-based
Settings: [Cpd] = 3 μM, 1 h preincubation, TGFβ1 1 ng/ml, 48 h
Procedure: Serum-deprived HSC were preincubated for 1 hour with RM-5061 before the activation with the profibrogenic cytokine TGFβ1 (1 ng/ml). After 48 hours of incubation, the α-SMA content was measured by ELISA. The obtained values were transformed into percentage inhibition over TGFβ1 control. Data are presented as mean (quadruplicates)±standard error of the mean (SEM). Statistical analyses were performed by one-way ANOVA followed by Bonferroni post-hoc tests, using Sigma Plot 11.0 software. [*: p<0.05; **: p<0.01; ***: p<0.001 (comparison versus TGFβ1 1 ng/mL group)]. The curve fitting and the calculation of half maximal inhibitory concentration (IC50) were performed with XLFit software 5.3.1.3.
Serum-deprived HSC were preincubated for 1 hour with Cpd.5 before the activation with the profibrogenic cytokine TGFβ1 (1 ng/ml). After 48 hours of incubation, the expression of α-SMA was measured by ELISA. The obtained values were transformed into percentage inhibition over TGFβ1 control. Data are presented as mean (triplicates)±standard deviation (SD). Statistical analyses were performed by one-way ANOVA followed by Bonferroni post-hoc tests, using Sigma Plot 11.0 software. [*: p<0.05; **: p<0.01; ***: p<0.001 (comparison versus TGFμ1 1 ng/mL group)]. The curve fitting and the calculation of half maximal inhibitory concentration (IC50) were performed with XLFit software 5.3.1.3.
The human primary hepatic stellate cells (hHSC) (Innoprot) were cultured in STeCM medium (ScienCell cat #5301) that was supplemented with 2% fetal bovine serum (FBS, ScienCell cat #0010), 1% penicillin/streptomycin (ScienCell cat #0503) and stellate cell growth supplement (SteCGS; ScienCell cat #5352). Cell culture flasks were coated with Poly-L Lysine (Sigma cat #P4707) for a better adherence.
The human primary hepatic stellate cells (hHSC) (Innoprot) were cultured under standard conditions, as described above. The cells were subsequently plated at a density of 2×10^4cells/well or 6,5×10^3 cells/well into 96-well or 384-well plates respectively. The next day, cell-culture medium was removed, and cells were washed with PBS (Invitrogen cat #14190). Then, hHSC were deprived for 24 hours in serum-free and SteCGS-free medium. For the treatments with compounds of formula (I), the serum-deprived hHSC were preincubated for 1 hour with the compounds followed by addition of the profibrogenic stimuli TGFβ1 (PeproTech cat #100-21, 1 ng/mL) in serum-free and SteCGS-free medium for an additional 48 hour period. At the end of treatment, the cell culture supernatants of treated-HSC were transferred into a new plate before storage at −20° C.The cells were washed with PBS (Invitrogen, cat #14190) before the addition of lysis buffer (CelLytic™ MT reagent; Sigma #C3228). Plates were then incubated for 30 min on ice using a plate shaker, before storage at −20° C.
The level of α-SMA was measured using a Sandwich ELISA. Briefly, the wells of an ELISA plate were first coated with the capture antibody (mouse monoclonal anti-ACTA2, Abnova) at 4° C. overnight. After 3 washes in PBS +0.2% Tween 20, a blocking solution consisting of PBS +0.2% BSA was added for one hour followed by another washing cycle. The cell lysates were transferred into the wells for binding to the capture antibody for a period of 2 h at room temperature. After the washing procedure, the detection antibody (biotinylated mouse monoclonal anti-ACTA2, Abnova) was added for 2 hours at room temperature followed by 3 washes. For the detection, an HRP-conjugated Streptavidin (R&D Systems cat #DY998) was first applied for 30 min at room temperature. After washing, the HRP substrate TMB (;BD, #555214) was added and incubated for 7 min at room temperature in the dark. Upon oxidation, TMB forms a water-soluble blue reaction product that becomes yellow with addition of sulfuric acid (solution stop), enabling accurate measurement of the intensity at 450 nm using a spectrophotometer. […]

Question: For `O=C(O)c1ccccc1-c1ccccc1C(=O)Nc1nc2ccccc2s1` [Cpd1, 2′-(benzo[d]thiazol-2-ylcarbamoyl)-[1,1′-biphenyl]-2-carboxylic acid], which “% I over TGFβ (α-SMA)” value is on record?
Answer: Its value is 40%.

Question: For `COc1ccccc1C(=O)Nc1nc(-c2cccs2)c(NC(=O)c2ccccc2)s1` [Cpd2, N-(5-benzamido-4-(thiophen-2-yl)-1,3-thiazol-2-yl)-2-methoxybenzamide], which “% I over TGFβ (α-SMA)” value is on record?
Answer: The value was 43%.

Question: How did the “% I over TGFβ (α-SMA)” value turn out when `Cc1sc(NC(=O)c2c(F)cccc2F)nc1-c1ccccc1` [Cpd3, 2,6-difluoro-N-(5-methyl-4-phenyl-1,3-thiazol-2-yl)benzamide] was run?
Answer: Its value is 48%.

Question: Which “% I over TGFβ (α-SMA)” value does the source give for `O=C(Nc1nc(-c2ccc3ccccc3c2)cs1)c1cc([N+](=O)[O-])ccc1Cl` [Cpd4, 2-chloro-N-[4-(2-naphthyl)-1,3-thiazol-2-yl]-5-nitrobenzamide] here?
Answer: Its value is 53%.
